Measurements reported in US20220381657A1, “METHOD FOR PREPARING BIOLOGICAL MATERIAL HAVING EXCELLENT LIGHT-TRANSMITTING PROPERTY” (RIKEN, priority 2016, published 2022).
Structures can show the parent of a compound that is named as a salt.

system: bovine coagulated blood; assay: Decoloring screening: heme eluted from bovine coagulated blood (OD420-OD700); settings: decolorization; OD420 calibrated by OD700
Description: A high-throughput screening system for evaluating the decoloring ability of various compounds was constructed. The screening system involved adding an aqueous solution of each compound to bovine coagulated blood and then measuring the absorbance of heme collected in the supernatant.
Specifically, to bovine blood, an equal amount of 8% PFA solution was added, and reacted at 4° C. overnight. The mixed liquid was centrifuged at 1500×g for 5 minutes, and the supernatant containing PFA was discarded. Then, the same amount of PBS as the original volume of blood was added to prepare a coagulated blood sample. To 150 μL of 10 wt % aqueous solution of each compound, 50 μL of the coagulated blood sample was added, and reacted at 37° C. overnight. The reaction solution was centrifuged at 1500×g for 5 minutes, and then 100 μL of the supernatant was added to a plate so as to be subjected to absorbance measurement. A sample which is suspended in water instead of being dissolved in the water has a weak decoloring effect, but none the less has a high absorbance value. […]

Compound	700 nm calibrated 420 nm Average
NCCCCCO [#0003]	1.83
NCCCCO [#0006]	1.22
NCCCCCCO [#0007, 6-Amino-1-hexanol]	2.66
Cl.O=C(O)CCP(CCC(=O)O)CCC(=O)O [#0197, Tris(2-carboxyethyl) phosphine hydrochloride]	4.28
NCCCNCCNCCCN [#0277, N,N′-Bis(3-aminopropyl) ethylenediamine]	1.20
CN(CCCN)CCCN [#0380]	2.62
C[N+](C)(C)Cc1ccccc1.[OH-] [#0387, Benzyltrimethyl- ammonium Hydroxide]	3.14
[Cl-].c1ccc(C[P+](c2ccccc2)(c2ccccc2)c2ccccc2)cc1 [#0425, Benzyltriphenyl-phosphonium chloride]	1.14
CC(C)(C)CC(C)(C)c1ccc(OCCOCC[N+](C)(C)Cc2ccccc2)cc1 [#0441, Benzethonium Chloride]	3.40
C1CCC2=NCCCN2CC1 [#0594, 1,8-Diazabicyclo [5.4.0]-7-undecene]	3.13
C[n+]1ccc(-c2cc[n+](C)cc2)cc1 [#0652, 1,1′-Dimethyl-4,4′-bipyridinium dichloride]	2.01
OCCN1CC1 [#1061]	1.14
CCCCCCCCCCCCCCCC[N+](C)(C)C.[Cl-] [#1235, Hexadecyltrimethyl- ammonium chloride]	2.85
CCN(CC)CCO [#1575, 2-Diethylamino-ethanol]	2.41
Dodecyldimethyl(3- sulfopropyl)ammonium [#0661]	2.10

same assay, conditions: decolorization; integrated absorbance 500-700 nm

Compound	integrated value 500-700 nm Average
NCCCCCO [#0003]	1.21
NCCCCO [#0006]	0.82
NCCCCCCO [#0007, 6-Amino-1-hexanol]	1.76
Cl.O=C(O)CCP(CCC(=O)O)CCC(=O)O [#0197, Tris(2-carboxyethyl) phosphine hydrochloride]	3.89
NCCCNCCNCCCN [#0277, N,N′-Bis(3-aminopropyl) ethylenediamine]	0.83
CN(CCCN)CCCN [#0380]	1.58
C[N+](C)(C)Cc1ccccc1.[OH-] [#0387, Benzyltrimethyl- ammonium Hydroxide]	2.56
[Cl-].c1ccc(C[P+](c2ccccc2)(c2ccccc2)c2ccccc2)cc1 [#0425, Benzyltriphenyl-phosphonium chloride]	0.83
CC(C)(C)CC(C)(C)c1ccc(OCCOCC[N+](C)(C)Cc2ccccc2)cc1 [#0441, Benzethonium Chloride]	2.80
C1CCC2=NCCCN2CC1 [#0594, 1,8-Diazabicyclo [5.4.0]-7-undecene]	1.94
C[n+]1ccc(-c2cc[n+](C)cc2)cc1 [#0652, 1,1′-Dimethyl-4,4′-bipyridinium dichloride]	2.01
OCCN1CC1 [#1061]	0.91
CCCCCCCCCCCCCCCC[N+](C)(C)C.[Cl-] [#1235, Hexadecyltrimethyl- ammonium chloride]	2.71
CCN(CC)CCO [#1575, 2-Diethylamino-ethanol]	1.21
Dodecyldimethyl(3- sulfopropyl)ammonium [#0661]	1.70

system: Serius; assay: not given; settings: not given

Compound	Fluorescence quench Average
Cl.O=C(O)CCP(CCC(=O)O)CCC(=O)O [#0197, Tris(2-carboxyethyl) phosphine hydrochloride]	−0.05
CCCCCCCCCCCCCC[N+](C)(C)Cc1ccccc1 [#0362]	1.07
CC(C)(C)CC(C)(C)c1ccc(OCCOCC[N+](C)(C)Cc2ccccc2)cc1 [#0441, Benzethonium Chloride]	1.08
C1CCC2=NCCCN2CC1 [#0594, 1,8-Diazabicyclo [5.4.0]-7-undecene]	0.54
C[n+]1ccc(-c2cc[n+](C)cc2)cc1 [#0652, 1,1′-Dimethyl-4,4′-bipyridinium dichloride]	0.42
OCCN1CC1 [#1061]	0.80
CCCCCCCCCCCCCCCC[N+](C)(C)C.[Cl-] [#1235, Hexadecyltrimethyl- ammonium chloride]	1.06
CCN(CC)CCO [#1575, 2-Diethylamino-ethanol]	0.61

same assay, conditions: relative fluorescence

Compound	Fluorescence quench Average
NCCCCCO [#0003]	0.63
NCCCCO [#0006]	0.64
NCCCCCCO [#0007, 6-Amino-1-hexanol]	0.22
NCCCNCCNCCCN [#0277, N,N′-Bis(3-aminopropyl) ethylenediamine]	0.71
CN(CCCN)CCCN [#0380]	0.62
C[N+](C)(C)Cc1ccccc1.[OH-] [#0387, Benzyltrimethyl- ammonium Hydroxide]	0.00
[Cl-].c1ccc(C[P+](c2ccccc2)(c2ccccc2)c2ccccc2)cc1 [#0425, Benzyltriphenyl-phosphonium chloride]	0.35
Dodecyldimethyl(3- sulfopropyl)ammonium [#0661]	1.13

system: not given; assay: not given; settings: OD at 400 nm of the chemical

Compound	400 nm
NCCCCCO [#0003]	0.052
NCCCCO [#0006]	0.06
NCCCCCCO [#0007, 6-Amino-1-hexanol]	0.093
NCCCNCCNCCCN [#0277, N,N′-Bis(3-aminopropyl) ethylenediamine]	0.053
C[N+](C)(C)Cc1ccccc1.[OH-] [#0387, Benzyltrimethyl- ammonium Hydroxide]	0.054
Dodecyldimethyl(3- sulfopropyl)ammonium [#0661]	0.051

same assay, conditions: Table 1

Compound	OD400
C[N+](C)(C)Cc1ccccc1.[OH-] [#0387, Benzyltrimethyl- ammonium Hydroxide]	0.054
CCCCCCCCC(=O)[O-].[Na+] [#0865, Sodium nonanoate]	0.051
CCCCCCCCCCCC(=O)N(C)CC(=O)[O-].[Na+] [#1466, Sodium N- lauroylsarcosinate]	0.05
Dodecyldimethyl(3- sulfopropyl)ammonium [#0661]	0.051

same assay, conditions: Table 3

Compound	OD400
NC[C@H](O)[C@@H](O)[C@H](O)[C@H](O)CO [#0956, D-Glucamine, reference compound]	0.260
CC(=O)N(CC(O)CO)c1c(I)c(C(=O)NCC(O)CO)c(I)c(C(=O)NCC(O)CO)c1I (stereo not shown) [Histodenz ™, reference compound]	0.054

system: not given; assay: not given; settings: Table 1

Compound	pH
C[N+](C)(C)Cc1ccccc1.[OH-] [#0387, Benzyltrimethyl- ammonium Hydroxide]	13.8
CCCCCCCCC(=O)[O-].[Na+] [#0865, Sodium nonanoate]	8.9
CCCCCCCCCCCC(=O)N(C)CC(=O)[O-].[Na+] [#1466, Sodium N- lauroylsarcosinate]	6.1

same assay, conditions: Table 3

Compound	pH
NC[C@H](O)[C@@H](O)[C@H](O)[C@H](O)CO [#0956, D-Glucamine, reference compound]	12.3
CC(=O)N(CC(O)CO)c1c(I)c(C(=O)NCC(O)CO)c(I)c(C(=O)NCC(O)CO)c1I (stereo not shown) [Histodenz ™, reference compound]	7.3

same assay, conditions: Table 4

Compound	pH
CSCCC(NC(C)=O)C(=O)O (racemic) [#0360, N-Acetyl- DL-methionine]	2.75
Cl.NC1CCSC1=O (racemic) [#1213, DL-Homocysteinethiolactone hydrochloride]	2.31
O=C(O)CC(O)C(=O)O (racemic) [#1300, DL-Malic acid]	2.34
O=C(O)CCCCCl [#0062, 5-Chlorovaleric acid]	2.86
C=CCC(=O)O [#0073, 3-Butenoic acid]	3.43
O=C(O)CCCCBr [#0074, 5-Bromovaleric acid]	2.39
O=C(O)CCO [#0155, 3-Hydroxypropionic acid]	3.66
CCOC(=O)[C@H]1CC[C@H](O)CC1 [#0216, Ethyl trans-4-hydroxy-cyclohexanecarboxylate]	5.68
CC(=O)N[C@@H](CS)C(=O)O [#0346, N-Acetyl- L-cysteine]	2.86
CSCC[C@H](NC(C)=O)C(=O)O [#0350, N-Acetyl- L-methionine]	2.74
Cl.NOCc1ccccc1 [#0429, O-Benzylhydroxylamine hydrochloride]	4.10
Cl.NC1(C(=O)O)CCC1 [#0473, 1-Aminocyclobutanecarboxylic acid hydrochloride]	2.18
CN(C)CCC(=O)O.Cl [#0702, 3-(Dimethylamino) propionic acid hydrochloride]	2.17
N[C@@H](CS(=O)(=O)O)C(=O)O [#0745, L-cysteic acid]	2.11
O=C(O)[C@@H](O)c1ccccc1Cl [#0746, 2-Chloro-L-mandelic acid]	2.14
O=C(O)C(C(=O)O)C1CCCC1 [#0762, Cyclopentyl malonic acid]	2.74

Compound	pH
CN1CCN(Cc2ccc(C(=O)O)cc2)CC1 [#0916, 4-[(4-Methyl-1-piperazinyl)methyl]benzoic acid dihydrochloride]	2.80
O=C(O)CCNCCNCCC(=O)O [#0936, Ethylenediamine-N,N′- dipropionic acid dihydrochloride]	2.22
O=CNCC(=O)O [#0942, N-Formylglycine]	2.67
O=C1O[C@H](CO)[C@@H](O)[C@H](O)[C@H]1O [#0963, D-(+)-Glucono-1,5-lactone]	2.69
O=C(O)[C@H](O)[C@@H](O)[C@H](O[C@@H]1O[C@H](CO)[C@H](O)[C@H](O)[C@H]1O)[C@H](O)CO [#1010, Lactobionic acid]	2.63
O=C(O)CC(CC(=O)O)C(=O)O [#1094, 1,2,3-Propanetri-carboxylic acid]	2.69
O=C(O)/C=C/c1ccc(Cn2ccnc2)cc1 [#1108, Ozagrel hydrochloride hydrate]	4.92
CCCCCCC(O)CO (stereo not shown) [#1109, 1,2-Octanediol]	6.00
O=S(=O)(O)c1cccnc1 [#1165, Pyridine-3-sulfonic acid]	2.21
Cl.N=C(N)Nc1ccc(C(=O)O)cc1 [#1249, 4-Guanidino benzoic acid hydrochloride]	4.22
O=C(O)CC(S)C(=O)O (stereo not shown) [#1302, Thiomalic acid]	2.68
OCCCCCl [#1365, 4-Chloro-1-butanol (contains tetrahydrofuran)]	3.08
OCCCCBr [#1366, 4-Bromo-1-butanol (contains tetrahydrofuran)]	2.31
CC[n+]1ccccc1Br [#1562, 2-Bromo-1-ethylpyridinium tetrafluoroborate]	3.92
N#CCC(=O)O [#1569, Cyanoacetic acid]	2.61
F[N+]12CC[N+](CCl)(CC1)CC2 [#1608, N-Fluoro-N′-(chloromethyl) triethylenediamine bis (tetrafluoroborate)]	5.19

same assay, conditions: […]

Compound	pH
NCCCCCO [#0003]	12.5
NCCCCO [#0006]	12.3
NCCCCCCO [#0007, 6-Amino-1-hexanol]	11.9
NCCCNCCNCCCN [#0277, N,N′-Bis(3-aminopropyl) ethylenediamine]	13.1
C[N+](C)(C)Cc1ccccc1.[OH-] [#0387, Benzyltrimethyl- ammonium Hydroxide]	13.8
